Laboratory results published in patent US20230374087A1, “METHOD TO IMPROVE PROTEIN QUALITY CONTROL” (The Johns Hopkins University, priority 2020, published 2023).

Experiments:
[1] = test system: CHIP pS20; test: Immunoblot for phospho-S20 CHIP in myocytes; type: cell-based, rat; conditions: cardiomyocytes; cGMP or SIL; DT3 1 μM
Protocol: Tissue and cultured cardiomyocytes were lysed in 1× lysis buffer (Cell Signaling Technology), protein concentration was measured by bicinchoninic acid assay (Pierce), and extracts were subjected to SDS-PAGE using Novex Tris-Glycine Gels (4-20% gradient gel, Life Technologies) or Mini-protean TGX Gels (4-20% gradient gel, Bio-Rad), transferred to nitrocellulose membranes, and probed with various primary antibodies (CHIP (#2080S), Hsc70 (#8444S), p-CHIP S20 (Custom antibody, AbMart Inc., Shanghai, China; Project: 25011-1), Myc (#2276S), GAPDH (#2118S), and α-tubulin (#3878S) (Cell Signaling) and ubiquitin antibody (#SAB4503053) from Sigma), and fluorescence-labeled secondary antibodies (Licor, #926-32211, 926-32210, 926-68023, or 926-68022). Gels were imaged (Odyssey, Licor) and band intensity quantified (Odyssey Software 3.1).
Human CHIP peptide fragments containing amino acid residues 13-30 were incubated with cGMP/PKG and assayed by MS. […] Phosphorylation was also observed at neighboring S24 and S26, but only when a S20A CHIP mutant was used (FIG. 2D). This indicates the primary target for PKG on CHIP is at S20. A monoclonal phospho-antibody generated against the S20 site in CHIP was tested in vitro with recombinant PKG1α and CHIP, verifying a consistent phospho-S20-CHIP signal. Use of a CHIP-S20A mutant CHIP confirmed specificity (FIG. 2E).

[2] = test system: proteasome; test: Proteasome activity assay in NRCMs; type: cell-based, rat; conditions: control cells and cells subjected to SI
Protocol: Proteasome peptidase activity assays were performed as described (22) with slight modification.

[3] = test system: neonatal rat cardiomyocytes (NRCMs); test: LDH/MTT cytotoxicity assay after simulated ischemia (SI); conditions: for SI-induced cytotoxicity (LDH/MTT ratio): sildenafil 1 μM
Protocol: After overnight culture, subsets of NRCMs were infected with adenovirus (AdV) containing a FLAG-tagged PDE5, FLAG control, Myc-tagged CHIP WT or K31A (provided by Dr. Cam Patterson), S20E or S20A (Welgen Inc., Worcester, MA). Forty-eight hours after infection, cells were exposed to either simulated ischemia (SI) or normal conditions. SI involved incubating cells in DMEM containing deoxyglucose (20 mM), NaCl (125 mM), KCl (8 mM), KH2PO4 (1.2 mM), MgSO4 (1.25 mM), CaCl2) (1.2 mM), NaHCO3(6.25 mM), sodium lactate (5 mM), and HEPES (20 mM) with a pH of 6.6. Cells were then placed in an incubator chamber (Billups-Rothenberg) with 95% nitrogen, 4% carbon dioxide, and 1% oxygen. Normoxic controls were incubated in DMEM supplemented with 10% FBS in air composed of 95% carbon dioxide and 5% oxygen. RNA or protein was harvested after 48 hours of SI. Cells were also treated with sildenafil (1 μM) or vehicle, or small interference RNA (siRNA, 100 pM) specific for rat Stub1 (Qiagen, Cat. #: SI01532251) or scrambled control provided 24 hours after plating and transfected with Xfect (Takara) per manufacturer protocol.
Lactate dehydrogenase (LDH) leakage and (3-[4,5-dimethylthiazol-2-yl]-2,5-diphenyltetrazolium bromide) (MTT) were assessed in cultured cardiomyocytes and media after SI from the same culture dish. LDH was assayed by commercial assay (Roche) following manufacturer's protocol, read in 96 well microplates on a Spectramax M5 (Molecular Devices) at 490 nm absorbance. For MTT, cells were washed in phosphate-buffered saline, MTT (Sigma-Aldrich) working solution added to the culture dish, incubated at 37° C., solubilized with acidic isopropanol, transferred to a 96 well plate, and read at 570 nm with background subtraction at 650 nm on a Spectramax M5.

`CCCc1nn(C)c2c(=O)[nH]c(-c3cc(S(=O)(=O)N4CCN(C)CC4)ccc3OCC)nc12` [SIL, sildenafil] was tested, and the “CHIP pS20 level” value [1] was “CHIP pS20 increased”, the proteasome activity [2] was “augmented” and the “SI-induced cytotoxicity (LDH/MTT ratio)” value ([3]; NRCMs expressing CHIP (scrambled siRNA)) was “reduced SI-induced cytotoxicity”. The “cytotoxicity with SIL across CHIP forms” value ([3]; NRCMs expressing WT, S20E or S20A CHIP, control and SI conditions) was “lowered cytotoxicity regardless of which CHIP protein was expressed” and the “SI-induced cytotoxicity (LDH/MTT ratio)” value ([3]; NRCMs lacking CHIP (CHIP-siRNA)) was “this protective effect was lost”.
